The test system of this experiment is normotensive dogs. Briefly: Pharmacodynamics (IOP) after single topical ocular dose of SEQ ID NO:1, latanoprost or their combination. Type of experiment: in vivo. The following applies: for maximum percent change in intraocular pressure compared to contralateral eye / intraocular pressure: female dogs; for maximum percent change in intraocular pressure compared to contralateral eye: 0.03% SEQ ID NO:1, 0.005% latanoprost, alone or adjunctive, FIG. 6; for intraocular pressure: topical ocular 0.005% latanoprost, 0.03% SEQ ID NO:1, alone or adjunctively, FIG. 7. As to the method: A study of the pharmacodynamics following a single ascending topical ocular dose of SEQ ID NO:1; latanoprost; or a latanoprost/SEQ ID NO:1 combination was undertaken in normotensive dogs.
Animals were not fasted prior to dose administration. As appropriate, latanoprost was administered first followed by SEQ ID NO:1 approximately 5 minutes later. […] After the dose was administered, the eye was allowed to close naturally. Each animal was then restrained for approximately 1 minute to prevent rubbing of the eyes. The right eye was dosed first. All measurement and collection times were based on the time of dosing of the second (left) eye.
Following arrival, animals were preconditioned (trained) to IOP measurement procedures three times daily (i.e. 07:00, 12:00, and 15:00±0.5 hours) at least three times/week for approximately seven weeks prior to Phase 1. Three readings/eye were taken using a TonoVet.
Intraocular pressure was measured at −1, 0 (predose), 1, 2, 4, 8, 12, 24, and 48 hours postdose (following the last dose, as applicable) for all animals in Group 1, Phases 1 through 10. Three readings/eye were taken using a TonoVet.
Animals selected for pharmacodynamics (Group 1) were administered SEQ ID NO:1 (12, 35, 105, or 210 μg/eye), latanoprost (0.35, 0.875, or 1.75 μg/eye), and latanoprost/SEQ ID NO:1 in combination to the right eye (OD) and vehicle or phosphate-buffered saline (PBS) to the left eye (OS).
Intraocular pressure (IOP) was measured at various time points from pre-dose to 48 hours post-dose.
Pharmacodynamic animals (Group 1) were unilaterally treated with a single topical ocular dose of latanoprost (0.001, 0.0025, and 0.005%), followed by approximately 5 minutes later with a dose of SEQ ID NO:1 0.03%, in the right eye (OD) only.

*1 amine or outer side, *2 acyl side, *3 side chain or, on linkers, in order; H or OH if unused. Where a SMILES comes first, the peptide text is derived from it. [ ]: non-standard residue; d: D form. The star is where a group is joined. dOrn(Me2) = CN(C)CCC[C@@H](N)C(=O)O; X1 = O=C([C@H]1CCCN([*:1])C1)[*:2]; Hyp = O=C(O)[C@@H]1C[C@@H](O)CN1; NMeL = CN[C@@H](CC(C)C)C(=O)O; Octanoyl = CCCCCCCC(=O)*

Consider `CCCCCCCC(=O)N1CCC[C@H](C(=O)N[C@@H](Cc2ccccc2)C(=O)N[C@H](CCCN(C)C)C(=O)N[C@@H](CC(C)C)C(=O)N2C[C@H](O)C[C@H]2C(=O)N(C)[C@@H](CC(C)C)C(=O)N[C@@H](CC(=O)O)C(=O)N[C@@H](CCCNC(=N)N)C(=O)N[C@H](C(N)=O)[C@@H](C)CC)C1` [SEQ ID NO:1, Occ-Sni-Phe-orn(Me2)-Leu-Hyp-Nml-Asp-Arg-Ile-NH2] (Octanoyl-[X1]F[dOrn(Me2)]L[Hyp][NMeL]DRI-NH2), for which the “maximum percent change in intraocular pressure compared to contralateral eye” value came to 16% and the intraocular pressure is given as 12 mmHg.

Take `CC(C)OC(=O)CCC/C=C\C[C@@H]1[C@@H](CC[C@@H](O)CCc2ccccc2)[C@H](O)C[C@@H]1O` [latanoprost]: the “maximum percent change in intraocular pressure compared to contralateral eye” value is recorded as 21% and the intraocular pressure is 12 mmHg. Further, the “maximal delta decrease (Emax) in IOP, latanoprost dose response” value (dogs, latanoprost 0.001, 0.0025, 0.005% with SEQ ID NO:1 0.03%, FIG. 4) is “greater with increasing latanoprost concentrations, in combination with SEQ ID NO:1”.

Source of the values: patent US20180215788A1, “Compounds and Compositions for the Treatment of Ophthalmic Disorders” (Shire Human Genetic Therapies, Inc., priority 2017, published 2018).
